Measured values from PMC7782499, “Progerinin, an optimized progerin-lamin A binding inhibitor, ameliorates premature senescence phenotypes of Hutchinson-Gilford progeria syndrome” (Communications Biology, 2021).
“And” between values parts separate entries of the source, which are not always exact repeats. Identical values can stand only once.

Tests used:
HGPS cells = test: Ki67-positive cells in HGPS cells; format: cell-based, human; details: for Ki67 positive cells/total cells: AG03199; for Ki67 positive cells/total cells (ratio): AG11498, 3 days
Method: A. In vivo pharmacokinetic (PK) analysis of JH010 (performed in rats). […] B Effect of SLC-D011 on human ERG (hERG). […] C In vivo pharmacokinetic analysis of SLD-D011. […] HEK293 cells transiently transfected with GFP-PG vectors were treated with SLC-D011 for 24 hr (n = 3 independent experiment; two-tailed Student’s t test). […] “Con” means dimethyl sulfoxide (DMSO)-treated control.
Cells were cultured on coverslips, washed with PBS, fixed with 4% paraformaldehyde (PFA) for 30 min at RT, and then permeabilized with 0.2% Triton X-100 at RT for 5 min. After treatment with blocking solution (anti-Human antibody diluted 1:400 in PBS) for 1 h, cells were incubated with anti-lamin A/C (1:400), anti-progerin (1:100), Ki67 (1:200), and anti-H3K9me3 (1:200) in blocking buffer overnight at 4 °C. Finally, cells were incubated with fluorescein isothiocyanate and rhodamine-conjugated secondary antibodies at 4 °C for 7 h. Nuclei were stained with DAPI (4, 6-diamidino-2-phenylindole) at RT for 10 min. After cells were washed three times with PBS, coverslips were mounted with mounting solution (H-5501; Vector Laboratories, Burlingame, CA, USA). Immunofluorescence signal was detected with a fluorescence microscopy (Zeiss and Logos).
HGPS cells were treated with SLC-D011 at a low concentration ( from 10
nM to 5μM) for 3 days. C. […]
[…] DAPI indicated DNA.

[1] = Solubility and stability of SLC-D011 in water and monoolein-based solution; format: physicochemical
Method: Fig. S9. In vitro ADME results of SLC-D011 via oral administration. A. Formulation for complete dissolution. Due to its extremely hydrophobic property, SLC-D011 was not dissolved in water solution (left). To overcome this problem, several edible solutions were tested and monoolein- based solution was selected as a dissolving solution (right). B. SLC-D011 was very stable in solution. For complete dissolution, heating at 80℃ and sonication step were required. However, SLC -D011 was not broken despite of heating […]
and sonication. […] C and D.
Pharmacokinetic analysis of SLC -D011dissolved in monoolein- based solution.

Lmna G609G/+ mouse = test: Grip strength test; format: in vivo; details: LMNA G609G/+ mice, 41-week-old, SLC-D011 for 6 weeks
Excerpt: Fig. 4 Oral administration of SLC-D011 suppresses premature aging features. A Gross morphology of SLC-D011-treated (D011) mice at 8 weeks old. Body size of treated mouse was apparently larger than that of the untreated control (Con) mouse. B Oral administration of SLC-D011 increases body weights of Lmna^G609G/G609G mice. Compared with untreated control group, body weight of treated mouse was increased by ~35%, *p < 0.05. C Oral administration of SLC-D011 extends the life span of Lmna^G609G/G609G mouse. SLC-D011 in monoolein-based solution was treated by oral gavage (50 mg/kg, daily) from 5 weeks old. […] E Grip test of Lmna^G609G/+ mice at 41-week-old was performed after administration of SLC-D011 for 6 weeks. The test was repeated 10 times for each mouse (n > 4), **p < 0.001. Data are presented as mean ± SD. […] H Anti-aging effects of single treatment of SLC-D011 or lonafarnib were measured in HGPS patients-derived cells (AG11513, AG03199, AG11498, and AG03198, Coriell Cell Repositories). […] No unit is printed with them; the x axis reads Age (weeks). / Panel C: Ave=16.8 / Max=18 are printed beside the dashed curve of the control (Con). […]
For analysis of heart rate, mice were anesthetized with 2.5% isoflurane and monitored using LOGIQ E9 (GE Healthcare). […] Each estimate given corresponded to total reads measured ten times, excluding the minimum and the maximum from each group of animals.

CC1(C)Oc2cc3oc(=O)ccc3cc2C[C@@H]1OC/C=C/c1ccccc1 [SLC-D011]
Ki67 positive cells/total cells (HGPS cells; 10nM, Ave): 0.1497 ratio | Ki67 positive cells/total cells (HGPS cells; 10nM, individual replicate): 0.0625 ratio and 0.2083 ratio and 0.1538 ratio and 0.1646 ratio and 0.1594 ratio | Ki67 positive cells/total cells (HGPS cells; 50nM, Ave): 0.369 ratio | Ki67 positive cells/total cells (HGPS cells; 50nM, individual replicate): 0.2857 ratio and 0.375 ratio and 0.4444 ratio and 0.5 ratio and 0.24 ratio | Ki67 positive cells/total cells (HGPS cells; 100nM, Ave): 0.418 ratio | Ki67 positive cells/total cells (HGPS cells; 100nM, individual replicate): 0.275 ratio and 0.3214 ratio and 0.4286 ratio and 0.44 ratio and 0.625 ratio | Ki67 positive cells/total cells (HGPS cells; 500nM, Ave): 0.45 ratio | Ki67 positive cells/total cells (HGPS cells; 500nM, individual replicate): 0.3889 ratio and 0.5 ratio and 0.5714 ratio and 0.3684 ratio and 0.4211 ratio | Ki67 positive cells/total cells (HGPS cells; 1μM, Ave): 0.4556 ratio | Ki67 positive cells/total cells (HGPS cells; 1μM, individual replicate): 0.4146 ratio and 0.4286 ratio and 0.5 ratio and 0.4792 ratio | Ki67 positive cells/total cells (HGPS cells; 2μM, Ave): 0.479 ratio | Ki67 positive cells/total cells (HGPS cells; 2μM, individual replicate): 0.5 ratio (2×) and 0.44 ratio and 0.4762 ratio | Ki67 positive cells/total cells (HGPS cells; 5μM, Ave): 0.4663 ratio | Ki67 positive cells/total cells (HGPS cells; 5μM, individual replicate): 0.3571 ratio and 0.2857 ratio and 0.75 ratio and 0.5909 ratio and 0.3478 ratio | Ki67 positive cells/total cells (ratio) (HGPS cells; 10nM): 0.25 and 0.2222 and 0.2143 and 0.3 | Ki67 positive cells/total cells (ratio) (HGPS cells; 10nM, mean): 0.2466 | Ki67 positive cells/total cells (ratio) (HGPS cells; 50nM): 0.2857 and 0.3333 and 0.375 and 0.2 | Ki67 positive cells/total cells (ratio) (HGPS cells; 50nM, mean): 0.2985 | Ki67 positive cells/total cells (ratio) (HGPS cells; 100nM): 0.3333 and 0.3125 and 0.4 and 0.375 | Ki67 positive cells/total cells (ratio) (HGPS cells; 100nM, mean): 0.3552 | Ki67 positive cells/total cells (ratio) (HGPS cells; 500nM): 0.375 and 0.4444 and 0.4286 | Ki67 positive cells/total cells (ratio) (HGPS cells; 500nM, mean): 0.4058 | Ki67 positive cells/total cells (ratio) (HGPS cells; 1μM): 0.3333 and 0.4 and 0.6 and 0.375 | Ki67 positive cells/total cells (ratio) (HGPS cells; 1μM, mean): 0.4271 | Ki67 positive cells/total cells (ratio) (HGPS cells; 2μM): 0.4 and 0.375 and 0.4167 | Ki67 positive cells/total cells (ratio) (HGPS cells; 2μM, mean): 0.3979 | Concentration enough for inducing Ki67 expression (HGPS cells; HGPS cells): 100 nM | Solubility in water [1]: very low solubility in water | Stability in monoolein-based solution ([1]; after heating and sonicating): very stable in the solution | Grip strength relative to LMNA +/+ (=1) (Lmna G609G/+ mouse): 0.9456 | Force (%) (Lmna G609G/+ mouse; LMNA +/+ = 100): 94.5577%
